The record followed here is ChEMBL document CHEMBL1201862, “PubChem BioAssay data set” (2004).

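These data come from cells grown in 96-well plates and exposed to compound for 48 hours at five concentrations. GI50: concentration for 50% inhibition of growth.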 Calls of active or inactive are those of the source. Rule as the data show it: active = GI50 up to about 1.1 µM and inactive = higher. Bounds are passed on as bounds.

Some test systems named below: HL-60; LOX IMVI; NCI-H460; NCI-H522; OVCAR-4; OVCAR-5; SF-268; SF-539; SK-MEL-28; SNB-19; TK-10; UO-31; HCC 2998; HCT-116; OVCAR-3.
What all share (assay): NCI anticancer screen, dose series, 48 h

On to `O=C(N/N=C/c1cc(Br)ccc1O)N/N=C/c1cc(Br)ccc1O`, for which the GI50 in the assay with HL-60 was 1.25 µM (inactive); in the assay on LOX IMVI, 5.85 µM (inactive); with NCI-H460, 3.1 µM (inactive); with NCI-H522, 1.99 µM (inactive); in the assay on OVCAR-4, 3.72 µM (inactive); in the assay with OVCAR-5, 2.84 µM (inactive). Also, the GI50 in the assay with SF-268 is 5.75 µM (inactive); in the assay with SF-539, 0.877 µM (active); with SK-MEL-28 it was > 100 µM (inactive); with SNB-19 it was 5.31 µM (inactive); with TK-10, 54.6 µM (inactive); in the assay with UO-31, 0.64 µM (active).

As for `CSc1ccc(Cc2cc(C(C)(C)C)cc(C(C)(C)C)c2O)cc1`, the GI50 was 18.5 µM (inactive) in the assay on HCC 2998; 10.8 µM (inactive) in the assay with HCT-116; 8.67 µM (inactive) with HL-60; 10.4 µM (inactive) with LOX IMVI; 14 µM (inactive) in the assay on NCI-H460; 15.4 µM (inactive) with OVCAR-4. For the same compound, the GI50 in the assay on OVCAR-5 was 3.11 µM (inactive); with SF-268, 15.8 µM (inactive); in the assay with SF-539, 17.3 µM (inactive); with SK-MEL-28, 16.5 µM (inactive); in the assay with SNB-19 it was 16.3 µM (inactive); with TK-10, 12.9 µM (inactive). Moreover, the GI50 in the assay with UO-31 is 17 µM (inactive).

Turning to `C=CCN(N=O)C(=O)N(CCCCC(NC(C)=O)C(=O)NCc1ccccc1)Cc1ccccc1` (stereo not drawn), the GI50 with HL-60 is 19.8 µM (inactive); with LOX IMVI it was 21.7 µM (inactive); in the assay with NCI-H460 it was 39.2 µM (inactive); with NCI-H522, 15.1 µM (inactive); in the assay with OVCAR-3, 30.3 µM (inactive); with OVCAR-4, 25.9 µM (inactive). In addition, the GI50 in the assay on OVCAR-5 was > 100 µM (inactive); in the assay with SF-268, 41.9 µM (inactive); with SF-539, 38.1 µM (inactive); with SK-MEL-28 it was 44.1 µM (inactive); in the assay on SNB-19 it was 51.5 µM (inactive); with TK-10, 35.1 µM (inactive). Further, the GI50 in the assay with UO-31 was 29.6 µM (inactive).

In the case of `Cc1ccc(S(=O)(=O)N/N=C(\CCN2CCCC2)CC(c2ccccc2)c2c(O)c3ccccc3oc2=O)cc1` (stereo not drawn), the GI50 is > 100 µM (inactive) with HCT-116; > 100 µM (inactive) in the assay on HL-60; > 100 µM (inactive) in the assay with LOX IMVI; > 100 µM (inactive) with NCI-H460; 99.5 µM (inactive) with NCI-H522; > 100 µM (inactive) with OVCAR-3. The GI50 in the assay on OVCAR-4, in the assay with OVCAR-5, with SF-268, in the assay on SF-539, with SNB-19 and with TK-10 was > 100 µM (inactive) in each case. In the assay on UO-31, the GI50 is > 100 µM (inactive).

In the case of `CC(C)(C)C1=Cc2cc3cc(C(C)(C)C)[nH]c(=O)c3cc2S(=O)(=O)N1`, the GI50 was 20.5 µM (inactive) in the assay with HCT-116; 21.2 µM (inactive) with HL-60; 37 µM (inactive) with NCI-H460; 15.3 µM (inactive) with NCI-H522; 19 µM (inactive) with OVCAR-3; 24.6 µM (inactive) in the assay on OVCAR-4. Also, the GI50 was 33.7 µM (inactive) in the assay with OVCAR-5; 26.1 µM (inactive) in the assay on SF-268; 31.3 µM (inactive) in the assay with SK-MEL-28; 36.4 µM (inactive) in the assay on SNB-19; 29.6 µM (inactive) with TK-10; 17.1 µM (inactive) in the assay on UO-31.

For `CCOC(=O)/C(C(=O)c1ccccc1)=C1\N[C@H](C(=O)OCC)CS1`, the GI50 in the assay with HCC 2998, with HCT-116, in the assay on HL-60, in the assay on LOX IMVI, in the assay with NCI-H460 and in the assay with NCI-H522 was > 100 µM (inactive) throughout. Moreover, the GI50 with OVCAR-3 was > 100 µM (inactive); with OVCAR-4 it was > 100 µM (inactive); in the assay with OVCAR-5, > 100 µM (inactive); in the assay on SF-268 it was > 100 µM (inactive); in the assay on SF-539 it was 10 µM (inactive); in the assay on SK-MEL-28 it was > 100 µM (inactive). Moreover, the GI50 in the assay with SNB-19 and in the assay with UO-31 was > 100 µM (inactive) each time.

`CC1CC(c2ccc(Cl)cc2)=Nc2ccccc2S1` (stereo not drawn): the GI50 in the assay with HCC 2998, in the assay on HCT-116, in the assay on HL-60, with NCI-H460, in the assay with NCI-H522 and in the assay with OVCAR-3 was > 100 µM (inactive) each time. Besides, the GI50 in the assay with OVCAR-4, in the assay on OVCAR-5, in the assay on SF-268, in the assay on SF-539, in the assay on SK-MEL-28 and with SNB-19 was > 100 µM (inactive) in each case. Also, the GI50 in the assay with TK-10 and with UO-31 was > 100 µM (inactive) throughout.

As to `NC(=S)N/N=C(\C(=O)Nc1ccc(Cl)c(Cl)c1)C1=NN(c2ccccc2)C(c2cccc([N+](=O)[O-])c2)CC1=O` (stereo not drawn), the GI50 with HCC 2998 was 40.6 µM (inactive); in the assay on HCT-116, 4.29 µM (inactive); in the assay with HL-60, 33.7 µM (inactive); in the assay on LOX IMVI, 16.3 µM (inactive); in the assay with NCI-H460, 36.6 µM (inactive); in the assay with OVCAR-3, 20.6 µM (inactive). In addition, the GI50 in the assay with OVCAR-4 was 20 µM (inactive); in the assay with OVCAR-5, 38.5 µM (inactive); in the assay with SF-268 it was 38.5 µM (inactive); with SF-539, 23.8 µM (inactive); in the assay on SK-MEL-28 it was 52.5 µM (inactive); with SNB-19, 35.6 µM (inactive). Besides, the GI50 was > 100 µM (inactive) in the assay with TK-10 and 30.3 µM (inactive) with UO-31.

Consider `O=C(O)CCc1nn2c(nc1=O)sc1ccc3ccccc3c12`, for which the GI50 with HCC 2998, in the assay with HCT-116, with HL-60, in the assay on LOX IMVI, in the assay with NCI-H460 and in the assay on OVCAR-3 was > 100 µM (inactive) in each case. Further, the GI50 in the assay on OVCAR-4, in the assay with SF-268, in the assay on SF-539, in the assay with SK-MEL-28, with SNB-19 and with TK-10 was > 100 µM (inactive) throughout. In addition, the GI50 with UO-31 was > 100 µM (inactive).

Regarding `COC(=O)/C(=N\Nc1nnc(C)n1N)C(C#N)c1ccc(Cl)cc1` (stereo not drawn), the GI50 with HCC 2998, in the assay on HCT-116, in the assay on LOX IMVI, in the assay with NCI-H460, with OVCAR-3 and in the assay on OVCAR-4 was > 100 µM (inactive) in each case. The GI50 in the assay with OVCAR-5, in the assay with SF-268, in the assay on SF-539, in the assay with SK-MEL-28, with SNB-19 and in the assay with TK-10 was > 100 µM (inactive) each time. Besides, the GI50 in the assay on UO-31 is > 100 µM (inactive).

Take `N#CC(C(=O)/C(=N\Nc1nc(S)nn1N)C(C#N)c1ccc(Cl)cc1)c1ccc(Cl)cc1` (stereo not drawn): the GI50 in the assay with HCC 2998, in the assay on HCT-116, in the assay with LOX IMVI, in the assay with NCI-H460, in the assay with OVCAR-3 and with OVCAR-4 was > 100 µM (inactive) throughout. In addition, the GI50 in the assay on OVCAR-5, with SF-268, in the assay with SF-539, in the assay with SK-MEL-28, in the assay on SNB-19 and with TK-10 was > 100 µM (inactive) each time. The GI50 in the assay on UO-31 is > 100 µM (inactive).

Turning to `O=C(/C=C/c1ccc(-c2ccccc2)cc1)c1ccccc1`, the GI50 in the assay with HCC 2998 was 18.2 µM (inactive); in the assay with HCT-116 it was 14.5 µM (inactive); in the assay on HL-60, 39.6 µM (inactive); with LOX IMVI it was 15.7 µM (inactive); in the assay on NCI-H460, 20.6 µM (inactive); in the assay with NCI-H522 it was 17.3 µM (inactive). Also, the GI50 in the assay with OVCAR-4 is 29.7 µM (inactive); with OVCAR-5 it was 17.3 µM (inactive); in the assay with SF-268, 24.8 µM (inactive); in the assay with SF-539 it was 17.9 µM (inactive); in the assay with SK-MEL-28 it was 25.8 µM (inactive); with TK-10 it was 22.1 µM (inactive). For the same compound, the GI50 in the assay on UO-31 is 35 µM (inactive).

In the case of `COc1ccc(/C=N\N2C(=O)Cc3ccccc32)cc1`, the GI50 in the assay with HCC 2998 was 25.4 µM (inactive); in the assay on HCT-116 it was > 100 µM (inactive); in the assay with HL-60, > 100 µM (inactive); in the assay on LOX IMVI, > 100 µM (inactive); in the assay with NCI-H460, > 100 µM (inactive); with OVCAR-3, > 100 µM (inactive). Besides, the GI50 with OVCAR-4 is > 100 µM (inactive); in the assay on OVCAR-5 it was > 100 µM (inactive); with SF-268 it was 74.3 µM (inactive); in the assay on SF-539, 39 µM (inactive); in the assay with SK-MEL-28, > 100 µM (inactive); in the assay on SNB-19 it was > 100 µM (inactive). Also, the values for the GI50 in the assay on TK-10 and with UO-31 were 59.6 µM (inactive) and 39.3 µM (inactive), respectively.

For the compound `Cc1cccc2c(=O)cc(-c3ccccc3)[nH]c12`, the GI50 with HCC 2998 was 4.39 µM (inactive); with HCT-116, 5.06 µM (inactive); in the assay on HL-60, 3.25 µM (inactive); in the assay on LOX IMVI, 4.58 µM (inactive); in the assay on NCI-H460 it was 3.95 µM (inactive); in the assay with OVCAR-3 it was 3.31 µM (inactive). Besides, the GI50 in the assay with OVCAR-4 was 4.09 µM (inactive); with SF-268, 8.15 µM (inactive); in the assay with SF-539, 5.69 µM (inactive); in the assay on SK-MEL-28 it was > 100 µM (inactive); with SNB-19 it was 7.94 µM (inactive); in the assay with TK-10, > 100 µM (inactive). The GI50 in the assay on UO-31 is 15.6 µM (inactive).

In the case of `COc1ccc(C(C#N)Cc2cc(OC)c(OC)c(OC)c2)cc1` (stereo not drawn), the GI50 is 39.9 µM (inactive) in the assay on HCT-116; 15 µM (inactive) with HL-60; 28.6 µM (inactive) with LOX IMVI; 12.1 µM (inactive) in the assay on NCI-H460; 22.4 µM (inactive) with NCI-H522; 31.4 µM (inactive) in the assay on OVCAR-3. Moreover, the GI50 in the assay on OVCAR-4 is 39.3 µM (inactive); in the assay with OVCAR-5 it was 64.7 µM (inactive); in the assay on SF-268, 49.2 µM (inactive); in the assay on SF-539 it was 23.4 µM (inactive); in the assay on SK-MEL-28, 54.8 µM (inactive); in the assay on SNB-19, 54.2 µM (inactive). Besides, the GI50 in the assay on TK-10 is 37.6 µM (inactive); in the assay on UO-31, 30.8 µM (inactive).
